{"source": "patent US6737383B1", "about": "“Herbicidal oxadiazolidines” (priority 1999, dated 2004)", "key": {"bedstraw": {"system": "bedstraw", "assay": "Test B pre/postemergence bedstraw", "type": "in vivo, Galium aparine", "how_it_was_run": "(§1)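 Test chemicals in a non-phytotoxic solvent mixture with surfactant were sprayed preemergence onto planted seeds and postemergence onto plants 2 to 18 cm tall (1- to 4-leaf stage). After twelve to sixteen days in a greenhouse, injury was visually rated against untreated controls from 0 (no effect) to 10 (complete control).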"}, "velvetleaf": {"system": "velvetleaf", "assay": "Test B pre/postemergence velvetleaf", "type": "in vivo, Abutilon theophrasti", "how_it_was_run": "as §1"}, "crabgrass": {"system": "crabgrass", "assay": "Test B pre/postemergence crabgrass", "type": "in vivo, Digitaria sanguinalis", "how_it_was_run": "as §1"}, "soybean": {"system": "soybean", "assay": "Test B pre/postemergence soybean", "type": "in vivo, Glycine max", "how_it_was_run": "as §1"}, "morningglory": {"system": "morningglory", "assay": "Test B pre/postemergence morningglory", "type": "in vivo, Ipomoea hederacea", "how_it_was_run": "as §1"}, "pigweed": {"system": "pigweed", "assay": "Test B pre/postemergence pigweed", "type": "in vivo, Amaranthus retroflexus", "how_it_was_run": "as §1"}, "blackgrass": {"system": "blackgrass", "assay": "Test B pre/postemergence blackgrass", "type": "in vivo, Alopecurus myosuroides", "how_it_was_run": "as §1"}, "corn": {"system": "corn", "assay": "Test B pre/postemergence corn", "type": "in vivo, Zea mays", "how_it_was_run": "as §1"}, "wild oat": {"system": "wild oat", "assay": "Test B pre/postemergence wild oat", "type": "in vivo, Avena fatua", "how_it_was_run": "as §1"}, "surinam grass": {"system": "surinam grass", "assay": "Test B pre/postemergence surinam grass", "type": "in vivo, Brachiaria decumbens", "how_it_was_run": "as §1"}, "sugar beet": {"system": "sugar beet", "assay": "Test B pre/postemergence sugar beet", "type": "in vivo, Beta vulgaris", "how_it_was_run": "as §1"}, "cocklebur": {"system": "cocklebur", "assay": "Test B pre/postemergence cocklebur", "type": "in vivo, Xanthium strumarium", "how_it_was_run": "as §1"}, "giant foxtail": {"system": "giant foxtail", "assay": "Test B pre/postemergence giant foxtail", "type": "in vivo, Setaria faberii", "how_it_was_run": "as §1"}, "purple nutsedge": {"system": "purple nutsedge", "assay": "Test B pre/postemergence purple nutsedge", "type": "in vivo, Cyperus rotundus", "how_it_was_run": "as §1"}, "rape": {"system": "rape", "assay": "Test B pre/postemergence rape", "type": "in vivo, Brassica napus", "how_it_was_run": "as §1"}, "wheat": {"system": "wheat", "assay": "Test B pre/postemergence wheat", "type": "in vivo, Triticum aestivum", "how_it_was_run": "as §1"}, "[1]": {"conditions": "Preemergence, Rate 62 g/ha, scale of 0 to 10 where 0 is no effect and 10 is complete control"}, "[2]": {"conditions": "Preemergence, Rate 250 g/ha, scale of 0 to 10 where 0 is no effect and 10 is complete control"}, "[3]": {"conditions": "Preemergence, Rate 500 g/ha, scale of 0 to 10 where 0 is no effect and 10 is complete control"}, "[4]": {"conditions": "Rate 62 g/ha, Postemergence, scale of 0 to 10 where 0 is no effect and 10 is complete control"}, "[5]": {"conditions": "Rate 125 g/ha, Postemergence, scale 0 to 10"}, "[6]": {"conditions": "Rate 125 g/ha, Preemergence, scale of 0 to 10 where 0 is no effect and 10 is complete control"}, "[7]": {"conditions": "Rate 500 g/ha, Postemergence, scale 0 to 10, 0 no effect, 10 complete control"}}, "data": [{"compound": "CC(C)=CCCC(C)=CCn1c(=O)on(C(=O)N(c2ccc(F)cc2)C(C)C)c1=O", "note": "[Compound 262]", "values": [{"measurement": "Bedstraw plant response rating", "setting": "bedstraw; [1]", "value": 0}, {"measurement": "Bedstraw plant response rating", "setting": "bedstraw; [2]", "value": 0}, {"measurement": "Plant response rating, Bedstraw", "setting": "bedstraw; [3]", "value": 0}, {"measurement": "Bedstraw plant response rating", "setting": "bedstraw; [4]", "value": 0}, {"measurement": "Bedstraw plant response rating", "setting": "bedstraw; [5]", "value": 0}, {"measurement": "Bedstraw plant response rating", "setting": "bedstraw; [6]", "value": 0}, {"measurement": "Velvetleaf plant response rating", "setting": "velvetleaf; [1]", "value": 0}, {"measurement": "Velvetleaf plant response rating", "setting": "velvetleaf; [2]", "value": 0}, {"measurement": "Plant response rating, Velvetleaf", "setting": "velvetleaf; [3]", "value": 0}, {"measurement": "Velvetleaf plant response rating", "setting": "velvetleaf; [6]", "value": 0}, {"measurement": "Velvetleaf plant response rating", "setting": "velvetleaf; [7]", "value": 2}, {"measurement": "Crabgrass plant response rating", "setting": "crabgrass; [1]", "value": 0}, {"measurement": "Crabgrass plant response rating", "setting": "crabgrass; [2]", "value": 2}, {"measurement": "Plant response rating, Crabgrass", "setting": "crabgrass; [3]", "value": 3}, {"measurement": "Crabgrass plant response rating", "setting": "crabgrass; [6]", "value": 2}, {"measurement": "Plant response rating (0 to 10; 0 is no effect, 10 is complete control), Crabgrass", "setting": "crabgrass; Rate 250 g/ha, Postemergence", "value": 0}, {"measurement": "Crabgrass plant response rating", "setting": "crabgrass; [7]", "value": 0}, {"measurement": "Soybean plant response rating", "setting": "soybean; [1]", "value": 0}, {"measurement": "Soybean plant response rating", "setting": "soybean; [2]", "value": 0}, {"measurement": "Plant response rating, Soybean", "setting": "soybean; [3]", "value": 0}, {"measurement": "Soybean plant response rating", "setting": "soybean; [6]", "value": 0}, {"measurement": "Soybean plant response rating", "setting": "soybean; [7]", "value": 4}, {"measurement": "Morningglory plant response rating", "setting": "morningglory; [1]", "value": 0}, {"measurement": "Morningglory plant response rating", "setting": "morningglory; [2]", "value": 0}, {"measurement": "Plant response rating, Morningglory", "setting": "morningglory; [3]", "value": 0}, {"measurement": "Morningglory plant response rating", "setting": "morningglory; [6]", "value": 0}, {"measurement": "Plant response rating (0 to 10; 0 is no effect, 10 is complete control), Morningglory", "setting": "morningglory; Rate 250 g/ha, Postemergence", "value": 5}, {"measurement": "Morningglory plant response rating", "setting": "morningglory; [7]", "value": 7}, {"measurement": "Redroot pigweed plant response rating", "setting": "pigweed; [1]", "value": 0}, {"measurement": "Redroot pigweed plant response rating", "setting": "pigweed; [2]", "value": 0}, {"measurement": "Plant response rating, Redroot pigweed", "setting": "pigweed; [3]", "value": 0}, {"measurement": "Redroot pigweed plant response rating", "setting": "pigweed; [6]", "value": 0}, {"measurement": "Plant response rating (0 to 10; 0 is no effect, 10 is complete control), Redroot pigweed", "setting": "pigweed; Rate 250 g/ha, Postemergence", "value": 3}, {"measurement": "Redroot pigweed plant response rating", "setting": "pigweed; [7]", "value": 4}, {"measurement": "Blackgrass plant response rating", "setting": "blackgrass; [1]", "value": 0}, {"measurement": "Blackgrass plant response rating", "setting": "blackgrass; [2]", "value": 2}, {"measurement": "Plant response rating, Blackgrass", "setting": "blackgrass; [3]", "value": 4}, {"measurement": "Blackgrass plant response rating", "setting": "blackgrass; [4]", "value": 0}, {"measurement": "Blackgrass plant response rating", "setting": "blackgrass; [5]", "value": 0}, {"measurement": "Blackgrass plant response rating", "setting": "blackgrass; [6]", "value": 0}, {"measurement": "Plant response rating (0 to 10; 0 is no effect, 10 is complete control), Blackgrass", "setting": "blackgrass; Rate 250 g/ha, Postemergence", "value": 0}, {"measurement": "Blackgrass plant response rating", "setting": "blackgrass; [7]", "value": 0}, {"measurement": "Corn plant response rating", "setting": "corn; [1]", "value": 0}, {"measurement": "Corn plant response rating", "setting": "corn; [2]", "value": 0}, {"measurement": "Plant response rating, Corn", "setting": "corn; [3]", "value": 0}, {"measurement": "Corn plant response rating", "setting": "corn; [4]", "value": 0}, {"measurement": "Corn plant response rating", "setting": "corn; [5]", "value": 0}, {"measurement": "Corn plant response rating", "setting": "corn; [6]", "value": 0}, {"measurement": "Plant response rating (0 to 10; 0 is no effect, 10 is complete control), Corn", "setting": "corn; Rate 250 g/ha, Postemergence", "value": 0}, {"measurement": "Corn plant response rating", "setting": "corn; [7]", "value": 0}, {"measurement": "Wild oats plant response rating", "setting": "wild oat; [1]", "value": 0}, {"measurement": "Wild oats plant response rating", "setting": "wild oat; [2]", "value": 0}, {"measurement": "Plant response rating, Wild oats", "setting": "wild oat; [3]", "value": 0}, {"measurement": "Wild oats plant response rating", "setting": "wild oat; [6]", "value": 0}, {"measurement": "Wild oats plant response rating", "setting": "wild oat; [7]", "value": 0}, {"measurement": "B. signalgrass plant response rating", "setting": "surinam grass; [1]", "value": 0}, {"measurement": "B. signalgrass plant response rating", "setting": "surinam grass; [2]", "value": 0}, {"measurement": "Plant response rating, B. signalgrass", "setting": "surinam grass; [3]", "value": 0}, {"measurement": "B. signalgrass plant response rating", "setting": "surinam grass; [4]", "value": 0}, {"measurement": "B. signalgrass plant response rating", "setting": "surinam grass; Rate 125 g/ha, Postemergence, scale 0 (no effect) to 10 (complete control)", "value": 0}, {"measurement": "B. signalgrass plant response rating", "setting": "surinam grass; [6]", "value": 0}, {"measurement": "Plant response rating (0 to 10; 0 is no effect, 10 is complete control), B. signalgrass", "setting": "surinam grass; Rate 250 g/ha, Postemergence", "value": 0}, {"measurement": "B. signalgrass plant response rating", "setting": "surinam grass; [7]", "value": 0}, {"measurement": "Sugarbeets plant response rating", "setting": "sugar beet; [1]", "value": 0}, {"measurement": "Sugarbeets plant response rating", "setting": "sugar beet; [2]", "value": 0}, {"measurement": "Plant response rating, Sugarbeets", "setting": "sugar beet; [3]", "value": 0}, {"measurement": "Sugarbeets plant response rating", "setting": "sugar beet; [6]", "value": 0}, {"measurement": "Sugarbeets plant response rating", "setting": "sugar beet; [7]", "value": 0}, {"measurement": "Cocklebur plant response rating", "setting": "cocklebur; [1]", "value": 0}, {"measurement": "Cocklebur plant response rating", "setting": "cocklebur; [2]", "value": 0}, {"measurement": "Plant response rating, Cocklebur", "setting": "cocklebur; [3]", "value": 0}, {"measurement": "Cocklebur plant response rating", "setting": "cocklebur; [4]", "value": 0}, {"measurement": "Cocklebur plant response rating", "setting": "cocklebur; [5]", "value": 0}, {"measurement": "Cocklebur plant response rating", "setting": "cocklebur; [6]", "value": 0}, {"measurement": "Plant response rating (0 to 10; 0 is no effect, 10 is complete control), Cocklebur", "setting": "cocklebur; Rate 250 g/ha, Postemergence", "value": 0}, {"measurement": "Cocklebur plant response rating", "setting": "cocklebur; [7]", "value": 0}, {"measurement": "Giant foxtail plant response rating", "setting": "giant foxtail; [1]", "value": 0}, {"measurement": "Plant response rating, Giant foxtail", "setting": "giant foxtail; [3]", "value": 7}, {"measurement": "Giant foxtail plant response rating", "setting": "giant foxtail; [6]", "value": 3}, {"measurement": "Plant response rating (0 to 10; 0 is no effect, 10 is complete control), Giant foxtail", "setting": "giant foxtail; Rate 250 g/ha, Postemergence", "value": 0}, {"measurement": "Giant foxtail plant response rating", "setting": "giant foxtail; [7]", "value": 0}, {"measurement": "Nutsedge plant response rating", "setting": "purple nutsedge; [1]", "value": 0}, {"measurement": "Nutsedge plant response rating", "setting": "purple nutsedge; [2]", "value": 0}, {"measurement": "Plant response rating, Nutsedge", "setting": "purple nutsedge; [3]", "value": 0}, {"measurement": "Nutsedge plant response rating", "setting": "purple nutsedge; [6]", "value": 0}, {"measurement": "Plant response rating (0 to 10; 0 is no effect, 10 is complete control), Nutsedge", "setting": "purple nutsedge; Rate 250 g/ha, Postemergence", "value": 0}, {"measurement": "Nutsedge plant response rating", "setting": "purple nutsedge; [7]", "value": 0}, {"measurement": "Rape plant response rating", "setting": "rape; [1]", "value": 0}, {"measurement": "Rape plant response rating", "setting": "rape; [2]", "value": 0}, {"measurement": "Plant response rating, Rape", "setting": "rape; [3]", "value": 0}, {"measurement": "Rape plant response rating", "setting": "rape; [6]", "value": 0}, {"measurement": "Plant response rating (0 to 10; 0 is no effect, 10 is complete control), Rape", "setting": "rape; Rate 250 g/ha, Postemergence", "value": 0}, {"measurement": "Rape plant response rating", "setting": "rape; [7]", "value": 0}, {"measurement": "Wheat plant response rating", "setting": "wheat; [1]", "value": 0}, {"measurement": "Wheat plant response rating", "setting": "wheat; [2]", "value": 0}, {"measurement": "Plant response rating, Wheat", "setting": "wheat; [3]", "value": 0}, {"measurement": "Wheat plant response rating", "setting": "wheat; [6]", "value": 0}, {"measurement": "Wheat plant response rating", "setting": "wheat; [7]", "value": 0}]}]}
